Here are results for one compound from patent US7968535B2, “Use of azapaullones for preventing and treating pancreatic autoimmune disorders” (Develogen Atkiengesellschaft, priority 2005, dated 2011).

Each structure is given as a SMILES string.

One test has as its system Pax4 gene. Nature of the test: Pax4 transcription by quantitative real time RT-PCR. The test is classed as cell-based, rat. As for the experimental part:
FIG. 11 illustrates a representative experiment in which the relative Pax4 levels were quantified using quantitative real time RT-PCR. […] Data are presented as relative levels to the basal Pax4 expression level in INS-1E cells only treated with the vehicle (Co.). Activin-A (1 nM) treated INS-1E cells serve as a positive control.
The response of the Pax4 gene to test compounds was investigated in the rat insulinoma cell line INS-1E. INS-1E cells are known to express Pax4 and to upregulate Pax4 levels in response to the treatment with activin-A and betacellulin. In the search for novel beta cell mitogens and/or beta cell protective agents the inventors treated INS-1E cells with test compound 10c. Compound 10c induces the relative Pax4 expression about 5-fold compared to the control and compared to 1 nM activin A (FIG. 11).
INS-1E cells were cultured as described (Merglen, (2004) Endocrinology; 145: 667-678). Cells were seeded at a density of 2×10^4 cells per cm^2 6 to 8 days before the treatment with chemicals. During the growth period the medium was changed once. […]
Total RNA from 8×10^4 cells growing on 4 cm^2 surface area of a tissue culture dish was extracted using Qiagen RNAeasy kit according to the instructions of the manufacturer (Qiagen) and 2 μg was converted into cDNA. […] Quantitative real-time PCR was performed using Applied Biosystems SDS 7000 detection system. […]

Another test concerns INS-1E cells. Nature of the test: Ins-1E cell proliferation assay (BrdU incorporation). The test is classed as cell-based, rat. Conditions: maximum at 1 μM. As for the experimental part: The proliferation rate of Ins-1E cells was determined by monitoring DNA synthesis using a 5-bromo-2′-deoxyuridine (BrdU) incorporation assay. BrdU is a halogenated nucleotide analogue of thymidine that is incorporated into DNA during the S-phase of the cell cycle. Pulse-labeling of DNA with BrdU and subsequent immunohistochemical detection of labeled nuclei was used to study the rate of cell proliferation. The treatment of INS-1E cells with 4-Azakenpaullone for 24 hours increases BrdU incorporation of Ins-1E cells in a concentration dependent manner, reaching a maximum of about 1.4 fold between 5 μM and 10 μM 4-AKP.
The proliferation of Ins-1E insulinoma cells was determined by monitoring DNA synthesis as an indirect parameter of cell proliferation. The incorporation of the thymidine analogue 5-bromo-2′-deoxyuridine (BrdU) during replication into cellular DNA was used to label the DNA of mitotically active cells. After its incorporation into DNA, BrdU was detected by immunoassay.
10,000 Ins-1E cells were seeded per 96-well (black 96-well tissue culture plates, Falcon #353948) in 100 μl culture medium (RPMI 1640 containing 11 mM glucose, 5% FCS, 10 mM HEPES, 50 μM 2-mercaptoethanol, 1 mM MEM sodium pyruvate, 100 U/ml penicillin, 100 μg/ml streptomycin) and cultivated at 37° C., 5% CO2 in humidified atmosphere for 3 days. Media was changed to 100 μl starvation medium (culture medium with only 5 mM glucose, 1% FCS) and the cells were re-incubated for 1 day. Then media was exchanged to starvation medium containing test substances and the cells were further incubated for 24 h. For the last 4 hours BrdU was added to reach a concentration of 10 μM. Cell proliferation ELISA (Cell Proliferation ELISA, BrdU, chemiluminescence, Roche, cat. No. 1669915) was performed according to the manufacturers guidelines.

For `N#Cc1ccc2[nH]c3c(c2c1)CC(=O)Nc1cccnc1-3` [Compound 10c, 6-Oxo-5,6,7,12-tetrahydropyrido[3′,2′:2,3]azepino[4,5-b]indole-9-carbonitrile], the Pax4 gene transcription entry with Pax4 gene (2 μM) is “transiently induce Pax4 gene transcription”. Moreover, the “relative Pax4 expression compared to the control” value in the test with Pax4 gene (INS-1E cells, vehicle control) is given as “about 5 fold”. Moreover, in the test with INS-1E cells, the “BrdU incorporation relative to untreated controls (maximum)” value was “about 1.5 fold”.
